The record followed here is patent US20200038514A1, “FOLATE CONJUGATE FOR USE IN TARGETING TUMOR ASSOCIATED MACROPHAGES” (ENDOCYTE, INC., priority 2016, published 2020).

Assay [1] relates to TNBC PDX tumor. As to the kind of experiment: In vivo activity against triple negative breast tumors (FIG. 10). On the set-up: species or system mice. To be noted: Conjugate 5 0.27 μmol/kg BIW two weeks; erubulin mesylate 1.0 μmol/kg SIW two weeks. Here is the method: (§1) Mice were maintained and tumor volumes were measures according to Method 3.
Primary human TNBC model ST502 (2-4 mm in diameter) or primary human TNBC model ST738 (2-4 mm in diameter) were inoculated subcutaneously at the right flank of each mouse. Mice were randomized into experimental groups of 7 mice each and test articles were injected through the lateral tail vein under sterile conditions in a volume of […] of phosphate-buffered saline (PBS).

The test system of assay [2] is ST070 ovarian PDX tumors. As to the kind of experiment: In vivo activity against ovarian tumors. On the set-up: species or system mice. To be noted: Conjugate 5 0.5 μmol/kg SIW; EC1456 4.0 μmol/kg SIW; paclitaxel 15 mg/kg SIW; two weeks. How it is done:
as §1
Primary human Ovarian model ST070 fragments (2-4 mm in diameter) were inoculated subcutaneously at the right flank of each mouse. Mice were randomized into experimental groups of 7 mice each and test articles were injected through the lateral tail vein under sterile conditions in a volume of […] of phosphate-buffered saline (PBS).

As for erubulin mesylate [reference compound], the “TNBC PDX tumor size compared to untreated control” value in assay [1] is given as “did not decrease TNBC PDX tumor size”.
Regarding `CC(=O)O[C@H]1C(=O)[C@@]2(C)[C@H]([C@H](OC(=O)c3ccccc3)[C@]3(O)C[C@H](OC(=O)[C@H](O)[C@@H](NC(=O)c4ccccc4)c4ccccc4)C(C)=C1C3(C)C)[C@]1(OC(C)=O)CO[C@@H]1C[C@@H]2O` [paclitaxel, reference compound], the “ovarian PDX tumor size compared to untreated control” value in assay [2] is listed as “did not decrease ovarian PDX tumor size”.
